In patent US9663508B2, “Biaryl acyl-sulfonamide compounds as sodium channel inhibitors” (AMGEN INC., priority 2013, dated 2017) one finds IC50 data, which are given here for 25 compounds.

Structures are written as SMILES. Where two headings read alike, the source gives them in different places.

The target of one data set is human Nav 1.5 (Homo sapiens (Human), UniProt Q14524). Nature of the data set: Nav 1.5 IonWorks Quattro (IWQ) in vitro assay. In kind it is cell-based. (In general: Patch clamp records ionic current or voltage across a cell membrane.)
human Nav 1.5, sequence (Q14524 whole entry): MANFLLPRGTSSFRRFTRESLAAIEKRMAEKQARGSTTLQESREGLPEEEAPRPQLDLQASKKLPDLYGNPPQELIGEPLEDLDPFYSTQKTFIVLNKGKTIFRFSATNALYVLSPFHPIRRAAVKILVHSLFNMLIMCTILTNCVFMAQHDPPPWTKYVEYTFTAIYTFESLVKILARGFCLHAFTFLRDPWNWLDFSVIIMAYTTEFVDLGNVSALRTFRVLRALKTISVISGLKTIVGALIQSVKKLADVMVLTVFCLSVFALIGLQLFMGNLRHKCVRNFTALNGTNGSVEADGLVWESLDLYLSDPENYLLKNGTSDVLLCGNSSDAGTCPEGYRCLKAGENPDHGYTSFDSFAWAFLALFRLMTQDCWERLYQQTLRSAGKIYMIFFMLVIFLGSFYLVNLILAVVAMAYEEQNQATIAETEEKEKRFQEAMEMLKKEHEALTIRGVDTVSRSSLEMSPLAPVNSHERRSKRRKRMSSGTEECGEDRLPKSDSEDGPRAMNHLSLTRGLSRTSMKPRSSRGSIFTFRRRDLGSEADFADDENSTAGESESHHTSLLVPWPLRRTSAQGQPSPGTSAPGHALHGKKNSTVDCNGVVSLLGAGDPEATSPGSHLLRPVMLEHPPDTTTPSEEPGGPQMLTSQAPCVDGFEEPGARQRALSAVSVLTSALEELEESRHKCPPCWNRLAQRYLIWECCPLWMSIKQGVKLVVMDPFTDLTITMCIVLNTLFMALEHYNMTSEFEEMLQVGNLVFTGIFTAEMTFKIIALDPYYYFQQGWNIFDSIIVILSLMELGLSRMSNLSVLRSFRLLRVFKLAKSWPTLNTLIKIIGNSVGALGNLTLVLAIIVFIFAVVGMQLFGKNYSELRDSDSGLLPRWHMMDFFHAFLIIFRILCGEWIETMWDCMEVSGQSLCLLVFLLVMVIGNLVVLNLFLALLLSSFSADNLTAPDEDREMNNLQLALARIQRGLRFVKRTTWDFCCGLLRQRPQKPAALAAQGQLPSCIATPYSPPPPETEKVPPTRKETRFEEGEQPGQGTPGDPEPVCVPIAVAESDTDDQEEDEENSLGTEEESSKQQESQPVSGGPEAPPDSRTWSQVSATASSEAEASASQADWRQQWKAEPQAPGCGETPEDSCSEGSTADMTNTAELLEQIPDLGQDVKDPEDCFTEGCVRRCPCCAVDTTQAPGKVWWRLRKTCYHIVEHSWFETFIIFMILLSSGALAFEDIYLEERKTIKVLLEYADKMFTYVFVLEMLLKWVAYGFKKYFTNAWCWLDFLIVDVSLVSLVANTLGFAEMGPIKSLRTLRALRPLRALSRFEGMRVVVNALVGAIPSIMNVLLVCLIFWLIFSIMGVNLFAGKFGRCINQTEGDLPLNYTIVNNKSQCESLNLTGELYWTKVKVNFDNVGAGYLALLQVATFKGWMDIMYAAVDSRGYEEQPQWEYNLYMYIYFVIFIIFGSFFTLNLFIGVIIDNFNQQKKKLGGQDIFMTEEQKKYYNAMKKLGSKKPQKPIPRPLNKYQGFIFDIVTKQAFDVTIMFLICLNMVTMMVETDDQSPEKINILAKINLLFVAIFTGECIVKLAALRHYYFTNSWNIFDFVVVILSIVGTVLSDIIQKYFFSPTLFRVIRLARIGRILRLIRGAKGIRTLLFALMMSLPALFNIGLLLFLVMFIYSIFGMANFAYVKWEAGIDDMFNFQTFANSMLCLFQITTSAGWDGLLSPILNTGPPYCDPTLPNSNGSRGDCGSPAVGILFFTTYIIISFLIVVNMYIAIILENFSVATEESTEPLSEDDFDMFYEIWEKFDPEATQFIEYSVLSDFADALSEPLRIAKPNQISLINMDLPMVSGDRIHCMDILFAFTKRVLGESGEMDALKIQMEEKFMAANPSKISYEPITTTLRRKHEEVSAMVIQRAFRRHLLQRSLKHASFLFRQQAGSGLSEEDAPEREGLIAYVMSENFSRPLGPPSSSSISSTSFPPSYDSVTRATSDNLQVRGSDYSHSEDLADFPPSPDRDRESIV
The next data set has as its target human Nav1.7 (Homo sapiens (Human), UniProt Q15858). Briefly: Nav 1.7 in vitro PatchXpress (PX) assay. In kind it is cell-based.
The mark [1] stands for this setting: in-vitro Nav 1.5 IWQ data, read-out: NAV 1.5 IWQ (IC50).

human Nav1.7, sequence (Q15858 whole entry): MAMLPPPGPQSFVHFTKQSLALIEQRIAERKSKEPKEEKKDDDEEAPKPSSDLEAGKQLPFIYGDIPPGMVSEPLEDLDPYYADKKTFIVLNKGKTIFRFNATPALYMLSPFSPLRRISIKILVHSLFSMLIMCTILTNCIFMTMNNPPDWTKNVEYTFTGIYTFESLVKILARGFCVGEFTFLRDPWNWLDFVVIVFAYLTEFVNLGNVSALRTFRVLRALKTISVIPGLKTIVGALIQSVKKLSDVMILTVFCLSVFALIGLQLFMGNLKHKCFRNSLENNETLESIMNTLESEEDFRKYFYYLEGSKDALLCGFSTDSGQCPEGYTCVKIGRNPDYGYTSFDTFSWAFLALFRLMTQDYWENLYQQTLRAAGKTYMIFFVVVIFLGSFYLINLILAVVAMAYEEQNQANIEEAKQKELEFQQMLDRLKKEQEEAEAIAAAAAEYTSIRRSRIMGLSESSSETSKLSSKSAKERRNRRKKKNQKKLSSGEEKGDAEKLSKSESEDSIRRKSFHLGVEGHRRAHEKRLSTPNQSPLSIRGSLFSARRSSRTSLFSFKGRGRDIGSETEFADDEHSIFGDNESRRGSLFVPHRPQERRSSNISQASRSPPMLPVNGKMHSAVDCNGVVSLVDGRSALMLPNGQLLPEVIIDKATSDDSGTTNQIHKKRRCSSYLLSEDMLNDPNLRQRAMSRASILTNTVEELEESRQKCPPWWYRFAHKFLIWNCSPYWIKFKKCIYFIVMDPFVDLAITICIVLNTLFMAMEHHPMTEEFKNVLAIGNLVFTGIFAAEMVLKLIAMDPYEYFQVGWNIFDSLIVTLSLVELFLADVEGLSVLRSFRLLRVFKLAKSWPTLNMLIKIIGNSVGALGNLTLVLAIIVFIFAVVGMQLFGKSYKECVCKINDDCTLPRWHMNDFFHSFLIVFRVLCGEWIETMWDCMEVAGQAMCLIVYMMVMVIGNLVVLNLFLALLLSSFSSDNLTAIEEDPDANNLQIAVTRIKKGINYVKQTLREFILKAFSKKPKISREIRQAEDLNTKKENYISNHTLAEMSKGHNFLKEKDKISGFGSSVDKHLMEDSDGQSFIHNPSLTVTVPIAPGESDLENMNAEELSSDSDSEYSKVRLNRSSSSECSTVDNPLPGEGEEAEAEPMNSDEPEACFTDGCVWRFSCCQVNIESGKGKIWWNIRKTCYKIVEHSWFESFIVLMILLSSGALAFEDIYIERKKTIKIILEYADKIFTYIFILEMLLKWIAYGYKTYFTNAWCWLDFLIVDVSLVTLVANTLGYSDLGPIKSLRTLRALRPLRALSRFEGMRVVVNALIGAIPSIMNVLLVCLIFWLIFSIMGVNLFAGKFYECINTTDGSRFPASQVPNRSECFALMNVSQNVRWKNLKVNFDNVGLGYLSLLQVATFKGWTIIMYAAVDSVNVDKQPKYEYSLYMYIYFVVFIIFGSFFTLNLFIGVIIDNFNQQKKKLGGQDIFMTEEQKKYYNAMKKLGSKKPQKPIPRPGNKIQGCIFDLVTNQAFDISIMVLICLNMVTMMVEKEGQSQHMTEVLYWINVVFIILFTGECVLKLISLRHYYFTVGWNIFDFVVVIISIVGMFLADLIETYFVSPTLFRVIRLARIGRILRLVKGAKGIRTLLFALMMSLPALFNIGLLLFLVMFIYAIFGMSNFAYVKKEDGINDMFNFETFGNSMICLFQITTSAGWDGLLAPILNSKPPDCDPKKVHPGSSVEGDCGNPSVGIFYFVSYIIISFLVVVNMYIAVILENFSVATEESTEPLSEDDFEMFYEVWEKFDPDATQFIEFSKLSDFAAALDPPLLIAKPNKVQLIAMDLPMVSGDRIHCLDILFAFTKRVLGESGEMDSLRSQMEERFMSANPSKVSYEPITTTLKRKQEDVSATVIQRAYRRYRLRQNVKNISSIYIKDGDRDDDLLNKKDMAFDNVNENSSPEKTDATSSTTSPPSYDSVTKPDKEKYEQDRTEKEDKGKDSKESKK
Method for human Nav 1.5: Nav 1.7 or Nav 1.5 Ion Works Quattro (IWQ) In Vitro Assay
HEK 293 Cells stably transfected with either human Nay 1.7 or human Nay 1.5 were recorded in population patch-clamp mode with the IonWorks® Quattro automated electrophysiology system in accordance with the manufacturer's specifications (Molecular Devices, LLC, Sunnyvale, Calif.). Sodium channel currents were measured in response to a train of depolarizations that induced successively greater inactivation.
Cells were held at −110 mV for three seconds (Nav 1.7) or half a second (Nav 1.5) from a holding voltage of −15 mV, then put through a series of 26 pulses of 150 msec duration to −20 mV at a frequency of 5 Hz. Cells were then left unclamped for a period of 3 to 8 minutes while a single concentration of test compound was added. Cells were then reclamped and put through the same voltage protocol. Current at the end of the 26th pulse to −20 mV was subtracted from the peak current evoked by the 26th pulse to −20 mV to correct for leak current. Percent block was calculated for each concentration in duplicate, and IC50 curves were fitted to percent block as a function of concentration.
Method for human Nav1.7: HEK 293 cells stably transfected with human Nav1.7 were recorded in whole cell voltage clamp mode with the PatchXpress automated electrophysiology system (Molecular Devices, LLC, Sunnyvale, Calif.). Compound effects were measured on a partially inactivated state of the sodium channel. Cells were clamped to a holding potential yielding 20 to 50% inactivation. To elicit sodium current, channels were activated by pulsing to −10 mV for 20 msec. This voltage protocol was repeated at a rate of 0.1 Hz throughout the experiment. A single concentration of test compound was applied to cells for a duration of 3 minutes. Peak sodium current was measured at the end of the compound addition period to determine percent inhibition. Three to five cells were tested per concentration, and IC50 curves were fitted to percent inhibition as a function of concentration.

What is called IC50 is the concentration that inhibits the measured activity by half. In the case of `Cc1cc(C(=O)NS(C)(=O)=O)c(F)cc1-c1cnc(N2CCC[C@@H]2c2ccc(Cl)c(Cl)c2)c(Cl)c1` [Example 658, 4-(5-chloro-6-((2R)-2-(3,4-dichlorophenyl)-1-pyrrolidinyl)-3-pyridinyl)-2-fluoro-5-methyl-N-(methylsulfonyl)benzamide, 4-(5-chloro-6-((2S)-2-(3,4-dichlorophenyl)-1-pyrrolidinyl)-3-pyridinyl)-2-fluoro-5-methyl-N-(methylsulfonyl)benzamide], the IC50 on human Nav 1.5 (read-out: NAV 1.5 IWQ IC50) was greater than 3000 nM; against human Nav1.7, 89.9 nM.
In the same order, the values of `Cc1cc(C(=O)NS(C)(=O)=O)c(F)cc1-c1cnc(OCc2cccc3ncccc23)c(Cl)c1` [Example 654, 4-(5-chloro-6-(5-quinolinylmethoxy)-3-pyridinyl)-2-fluoro-5-methyl-N-(methylsulfonyl)benzamide] are greater than 3000 nM and 90.4 nM.
In the same order, the values of `Cc1cc(C(=O)NS(C)(=O)=O)c(F)cc1-c1cnc(Oc2c(C)cccc2C(C)(C)C)c(Cl)c1` [Example 633, 4-(6-(2-tert-butyl-6-methylphenoxy)-5-chloro-3-pyridinyl)-2-fluoro-5-methyl-N-(methylsulfonyl)benzamide] are greater than 3000 nM and 83.3 nM.
Take `Cc1cc(C(=O)NS(C)(=O)=O)c(F)cc1-c1cnc(Oc2cc(Cl)ccc2F)c(Cl)c1` [Example 617, 4-(5-chloro-6-(5-chloro-2-fluorophenoxy)-3-pyridinyl)-2-fluoro-5-methyl-N-(methylsulfonyl)benzamide]: the figures for the IC50 at human Nav 1.5 (read-out: NAV 1.5 IWQ IC50) and against human Nav1.7 were greater than 3000 nM and 93.3 nM, respectively.
Taken in the same sequence, the figures for `CC[C@@H](Oc1ncc(-c2cc(F)c(C(=O)NS(C)(=O)=O)cc2C)cc1Cl)c1ccc(F)c(C)c1` [Example 675, 4-(5-chloro-6-(((1R)-1-(4-fluoro-3-methylphenyl)propyl)oxy)-3-pyridinyl)-2-fluoro-5-methyl-N-(methylsulfonyl)benzamide] were greater than 10000 nM and 54 nM.
On to `CS(=O)(=O)NC(=O)c1cc(Cl)c(-c2cnc(Oc3cc(F)cc(F)c3F)c(Cl)c2)cc1F` [Example 589, 5-chloro-4-(5-chloro-6-(2,3,5-trifluorophenoxy)-3-pyridinyl)-2-fluoro-N-(methylsulfonyl)benzamide], for which the IC50 on human Nav 1.5 (read-out: NAV 1.5 IWQ IC50) was greater than 3000 nM; at human Nav1.7 it was 49.9 nM.
In the same order, the values of `COc1cc(C(=O)NS(C)(=O)=O)c(F)cc1-c1cnc(O[C@H]2C[C@H]3CC[C@@H]2C3)c(Cl)c1` [Example 703, 4-(6-((1R,2S,4S)-bicyclo[2.2.1]hept-2-yloxy)-5-chloro-3-pyridinyl)-2-fluoro-5-methoxy-N-(methylsulfonyl)benzamide] are greater than 3000 nM and 78.2 nM.
In the case of `CCS(=O)(=O)NC(=O)c1cc(C)c(-c2cnc(Oc3c(C)cc(Cl)cc3Cl)c(Cl)c2)cc1F` [Example 800, 4-(5-chloro-6-(2,4-dichloro-6-methylphenoxy)-3-pyridinyl)-N-(ethylsulfonyl)-2-fluoro-5-methylbenzamide], the IC50 stood at 1250 nM on human Nav 1.5 (setting [1]) and 96 nM against human Nav1.7 (in-vitro Nav 1.7 PX data).
Take `Cc1cc(C(=O)NS(C)(=O)=O)c(F)cc1-c1cnc(O[C@H](C)c2cc(F)c(F)cc2F)c(Cl)c1` [Example 660, 4-(5-chloro-6-((1R)-1-(2,4,5-trifluorophenyl)ethoxy)-3-pyridinyl)-2-fluoro-5-methyl-N-(methylsulfonyl)benzamide, 4-(5-chloro-6-((1S)-1-(2,4,5-trifluorophenyl)ethoxy)-3-pyridinyl)-2-fluoro-5-methyl-N-(methylsulfonyl)benzamide]: the IC50 at human Nav 1.5 (read-out: NAV 1.5 IWQ IC50) is 6440 nM; against human Nav1.7, 92.5 nM.
Turning to `Cc1ccc(Cl)cc1Oc1ncc(-c2cc(F)c(C(=O)NS(C)(=O)=O)cc2Cl)cc1Cl` [Example 590, 5-chloro-4-(5-chloro-6-(5-chloro-2-methylphenoxy)-3-pyridinyl)-2-fluoro-N-(methylsulfonyl)benzamide], the IC50 is greater than 3000 nM on human Nav 1.5 (read-out: NAV 1.5 IWQ IC50) and 68.1 nM against human Nav1.7.
Taken in the same sequence, the figures for `Cc1cc(Cl)cc(Cl)c1Oc1ncc(-c2cc(F)c(C(=O)NS(C)(=O)=O)cc2F)cc1Cl` [Example 567, 4-(5-chloro-6-(2,4-dichloro-6-methylphenoxy)-3-pyridinyl)-2,5-difluoro-N-(methylsulfonyl)benzamide] were greater than 4900 nM and 59.8 nM.
Taken in the same sequence, the figures for `CS(=O)(=O)NC(=O)c1cc(Cl)c(-c2cnc(Oc3cc(F)ccc3F)c(Cl)c2)cc1F` [Example 597, 5-chloro-4-(5-chloro-6-(2,5-difluorophenoxy)-3-pyridinyl)-2-fluoro-N-(methylsulfonyl)benzamide] were 5390 nM and 69.8 nM.
Taken in the same sequence, the figures for `Cc1cc(C(=O)NS(C)(=O)=O)c(F)cc1-c1cnc(O[C@](C)(c2ccccc2)C(F)(F)F)c(Cl)c1` [Example 587, 4-(5-chloro-6-((1R)-2,2,2-trifluoro-1-methyl-1-phenylethoxy)-3-pyridinyl)-2-fluoro-5-methyl-N-(methylsulfonyl)benzamide, 4-(5-chloro-6-((1S)-2,2,2-trifluoro-1-methyl-1-phenylethoxy)-3-pyridinyl)-2-fluoro-5-methyl-N-(methylsulfonyl)benzamide] were greater than 3000 nM and 81.5 nM.
As for `Cc1cc(Cl)cc(Cl)c1Oc1ncc(-c2ccc(C(=O)NS(C)(=O)=O)cc2OC(F)F)cc1Cl` [Example 585, 4-(5-chloro-6-(2,4-dichloro-6-methylphenoxy)-3-pyridinyl)-3-(difluoromethoxy)-N-(methylsulfonyl)benzamide], the IC50 was 289 nM at human Nav 1.5 (read-out: NAV 1.5 IWQ IC50) and 47.2 nM on human Nav1.7.
As to `Cc1cc(C(=O)NS(=O)(=O)c2nccs2)c(F)cc1-c1cnc(Oc2c(C)cc(Cl)cc2Cl)c(Cl)c1` [Example 799, 4-(5-chloro-6-(2,4-dichloro-6-methylphenoxy)-3-pyridinyl)-2-fluoro-5-methyl-N-(1,3-thiazol-2-ylsulfonyl)benzamide], the values for the IC50 at human Nav 1.5 (setting [1]) and on human Nav1.7 (in-vitro Nav 1.7 PX data) were 669 nM and 23.1 nM, respectively.
For the compound `Cc1cc(C(=O)NS(C)(=O)=O)c(F)cc1-c1cnc(Oc2c(Cl)cccc2Cl)c(Cl)c1` [Example 627, 4-(5-chloro-6-(2,6-dichlorophenoxy)-3-pyridinyl)-2-fluoro-5-methyl-N-(methylsulfonyl)benzamide], the IC50 at human Nav 1.5 (read-out: NAV 1.5 IWQ IC50) was greater than 3000 nM; on human Nav1.7 it was 69.1 nM.
In the same order, the values of `Cc1cc(C(=O)NS(C)(=O)=O)c(F)cc1-c1cnc(Oc2cccc(C)c2F)c(Cl)c1` [Example 618, 4-(5-chloro-6-(2-fluoro-3-methylphenoxy)-3-pyridinyl)-2-fluoro-5-methyl-N-(methylsulfonyl)benzamide] are greater than 3000 nM and 95 nM.
As to `COc1cc(C(=O)NS(C)(=O)=O)c(F)cc1-c1cnc(OCc2nc3ccccc3s2)c(Cl)c1` [Example 709, 4-(6-(1,3-benzothiazol-2-ylmethoxy)-5-chloro-3-pyridinyl)-2-fluoro-5-methoxy-N-(methylsulfonyl)benzamide], the results for the IC50 on human Nav 1.5 (setting [1]) and at human Nav1.7 (in-vitro Nav 1.7 PX data) were greater than 3000 nM and 34.9 nM, respectively.
Regarding `Cc1cc(C(=O)NS(C)(=O)=O)c(F)cc1-c1cnc(N2CCC[C@H]2c2ccccc2)c(Cl)c1` [Example 646, 4-(5-chloro-6-((2S)-2-phenyl-1-pyrrolidinyl)-3-pyridinyl)-2-fluoro-5-methyl-N-(methylsulfonyl)benzamide], the IC50 on human Nav 1.5 (read-out: NAV 1.5 IWQ IC50) is greater than 3000 nM; against human Nav1.7 it was 99.9 nM.
`COc1cc(C(=O)NS(C)(=O)=O)ccc1-c1cnc(COc2ccc(Cl)c(Cl)c2)c(Cl)c1` [Example 774, 4-(5-Chloro-6-((3,4-Dichlorophenoxy)-Methyl)Pyridin-3-yl)-3-Methoxy-N-(Methylsulfonyl)Benzamide]: the IC50 is greater than 3000 nM on human Nav 1.5 (setting [1]) and 80.1 nM against human Nav1.7 (in-vitro Nav 1.7 PX data).
As for `Cc1cc(C(=O)NS(C)(=O)=O)c(F)cc1-c1cnc(Oc2ccc(Cl)c(Cl)c2)c(Cl)c1` [Example 664, 4-(5-chloro-6-(3,4-dichlorophenoxy)-3-pyridinyl)-2-fluoro-5-methyl-N-(methylsulfonyl)benzamide], the IC50 at human Nav 1.5 (read-out: NAV 1.5 IWQ IC50) is greater than 10000 nM; against human Nav1.7 it was 80.6 nM.
Taken in the same sequence, the figures for `Cc1cc(C(=O)NS(C)(=O)=O)c(F)cc1-c1cnc(Oc2cc(F)cc(F)c2F)c(Cl)c1` [Example 629, 4-(5-chloro-6-(2,3,5-trifluorophenoxy)-3-pyridinyl)-2-fluoro-5-methyl-N-(methylsulfonyl)benzamide] were greater than 3000 nM and 57.8 nM.
Taken in the same sequence, the figures for `COc1cc(C(=O)NS(C)(=O)=O)ccc1-c1cnc(OCc2ccccc2Cl)c(Cl)c1` [Example 577, 4-(5-chloro-6-((2-chlorobenzyl)oxy)-3-pyridinyl)-3-methoxy-N-(methylsulfonyl)benzamide] were greater than 3000 nM and 95 nM.
In the case of `COc1cc(C(=O)NS(C)(=O)=O)ccc1-c1cnc(Oc2cc(Cl)cc(Cl)c2)c(C)c1` [Example 841, 4-(6-(3,5-Dichlorophenoxy)-5-Methyl-3-Pyridinyl)-3-Methoxy-N-(Methylsulfonyl)Benzamide], the values for the IC50 at human Nav 1.5 (setting [1]) and on human Nav1.7 (in-vitro Nav 1.7 PX data) were greater than 3000 nM and 82.8 nM, respectively.
For `Cc1cc(C(=O)NS(C)(=O)=O)c(F)cc1-c1cnc(N2CCC[C@@H]2c2cccc(Cl)c2)c(Cl)c1` [Example 656, 4-(5-chloro-6-((2R)-2-(3-chlorophenyl)-1-pyrrolidinyl)-3-pyridinyl)-2-fluoro-5-methyl-N-(methylsulfonyl)benzamide, 4-(5-chloro-6-((2S)-2-(3-chlorophenyl)-1-pyrrolidinyl)-3-pyridinyl)-2-fluoro-5-methyl-N-(methylsulfonyl)benzamide], the values for the IC50 at human Nav 1.5 (read-out: NAV 1.5 IWQ IC50) and against human Nav1.7 were greater than 3000 nM and 73.8 nM, respectively.
